Experimental data as given in patent publication US7417156B2, “Orally active, antimalarial, anticancer, artemisinin-derived trioxane dimers” (Johns Hopkins University, priority 2002, dated 2008).

Tests used:
malaria parasite = assay: Efficacy Study Blood Schizontocidal Activity; type: in vivo; set-up: ED90: unit not given here
SF-295 = assay: NCI 60 cell line panel screen (SRB); type: cell-based, human
UACC-62 = assay: NCI 60 cell line panel screen (SRB); type: cell-based, human
SW-620 = assay: NCI 60 cell line panel screen (SRB); type: cell-based, human
LOX IMVI = assay: NCI 60 cell line panel screen (SRB); type: cell-based, human
DU-145 = assay: NCI 60 cell line panel screen (SRB); type: cell-based, human
male CD-1 mice = assay: Acute toxicity study, single intraperitoneal injection; settings: for Mortality: single ip, male CD-1 mice
Method: Each compound was dissolved in DMSO (Mallinkrodt Lot No. V18H15) to achieve a concentration of 200 mg/ml, and then 3 parts sesame oil (Spectrum Lot No. M10656) was added to make a working concentration of 50 mg/ml for dose administration. Stability, strength, and uniformity of the test articles in the dose formulations were not determined for this study.
Forty-two CD1 male mice purchased from Charles River Laboratories (Wilmington, Mass.) were used in the study. Mice were quarantined for 3 days prior to initiation of the study.
Mice were weighed and randomized into treatment groups on the day prior to the first dose administration. Due to limitations in the amount of available test materials, fewer mice in 1000 mg/kg groups were treated than specified in the protocol. The numbers of animals intended to be used and actually used with each compound at each dose level are shown in the table below; the only differences are in the high-dose groups.
Surviving animals were sacrificed on Day 8 and blood was collected for clinical pathology evaluations.
Mortality and morbidity were checked twice daily on weekdays and once daily on the weekend, see Table VI. Animals were weighed daily and prior to necropsy.

SN12C = assay: NCI 60 cell line panel screen (SRB); type: cell-based, human
SK-MEL-5 = assay: NCI 60 cell line panel screen (SRB); type: cell-based, human
HCC-2998 = assay: NCI 60 cell line panel screen (SRB); type: cell-based, human; settings: HCC-2998 (Colon Cancer)
HCT-15 = assay: NCI 60 cell line panel screen (SRB); type: cell-based, human; settings: for Log10GI50: Colon Cancer, HCT-15; for Log10LC50 / Log10TGI50: HCT-15 (Colon Cancer); for Log10LC50: LC50: PG=−50; for Log10TGI50: TGI: PG=0
MDA-MB231/ATCC = assay: NCI 60 cell line panel screen (SRB); type: cell-based, human
786-0 = assay: NCI 60 cell line panel screen (SRB); type: cell-based, human; settings: for Log10LC50 / Log10TGI50: 786-0 (Renal Cancer); for Log10LC50: LC50: PG=−50; for Log10TGI50: TGI: PG=0; for Log10GI50: Renal Cancer, 786-0
A498 = assay: NCI 60 cell line panel screen (SRB); type: cell-based, human
OVCAR-4 = assay: NCI 60 cell line panel screen (SRB); type: cell-based, human
[1] = tested on: P. berghei NY malaria parasite; assay: Antimalarial efficacies in vivo in mice
Excerpt: Neither overt toxicity nor behavioral modification was observed due to drug administration in any of these mouse experiments.

CC1CCC2C(C)C(CC(COC(=O)c3cc[n+]([O-])cc3)CC3OC4OC5(C)CCC6C(C)CCC(C3C)C46OO5)OC3OC4(C)CCC1C32OO4 (stereo not drawn) [Compound 13, bis-trioxane primary alcohol isonicotinate N-oxide]
ED50 (malaria parasite; Route: IV): 0.55 mg/kg | ED90 (malaria parasite; Route: IV): 2.0 | ED50 (malaria parasite; Route: PO): 4 mg/kg | ED90 (malaria parasite; Route: PO): 9.0 | efficacy relative to sodium artesunate in words (malaria parasite; orally and i.v.): more efficacious | Log10GI50 (SF-295; CNS Cancer, SF-295): −5.21 | Log10LC50 (SF-295; SF-295 (CNS Cancer), LC50: PG=−50): −4.33 log10M | Log10TGI50 (SF-295; SF-295 (CNS Cancer), TGI: PG=0): −4.77 log10M | Log10GI50 (UACC-62; Melanoma, UACC-62): −8.00 | Log10LC50 (UACC-62; UACC-62 (Melanoma), LC50: PG=−50): −4.66 log10M | Log10TGI50 (UACC-62; UACC-62 (Melanoma), TGI: PG=0): −5.07 log10M | Log10GI50 (SW-620; Colon Cancer, SW-620): <−8.30 | Log10LC50 (SW-620; SW-620 (Colon Cancer), LC50: PG=−50): −4.53 log10M | Log10TGI50 (SW-620; SW-620 (Colon Cancer), TGI: PG=0): −5.05 log10M | Log10LC50 (LOX IMVI; LOX IMVI (Melanoma), LC50: PG=−50): −5.78 log10M | Log10TGI50 (LOX IMVI; LOX IMVI (Melanoma), TGI: PG=0): <−8.30 log10M | Log10GI50 (LOX IMVI; Melanoma, LOX IMVI): <−8.30 | Log10TGI50 (DU-145; DU-145 (Prostate Cancer), TGI: PG=0): −5.00 log10M | Log10GI50 (DU-145; Prostate Cancer, DU-145): −7.48 | Mortality (male CD-1 mice; 125 mg/kg): No death | Mortality (male CD-1 mice; 250 mg/kg): No death | Mortality (male CD-1 mice; 500 mg/kg): 3/3 dead | Mortality (male CD-1 mice; 750 mg/kg): 2/3 dead | toxicity relative to sodium artesunate in words (male CD-1 mice; intraperitoneally to mice as a single dose): less toxic | Log10GI50 (SN12C; Renal Cancer, SN12C): <−8.30 | Log10LC50 (SN12C; SN12C (Renal Cancer), LC50: PG=−50): −4.72 log10M | Log10TGI50 (SN12C; SN12C (Renal Cancer), TGI: PG=0): −5.29 log10M | Log10GI50 (SK-MEL-5; Melanoma, SK-MEL-5): <−8.30 | Log10LC50 (SK-MEL-5; SK-MEL-5 (Melanoma), LC50: PG=−50): −4.73 log10M | Log10TGI50 (SK-MEL-5; SK-MEL-5 (Melanoma), TGI: PG=0): −5.28 log10M | Log10LC50 (HCC-2998; LC50: PG=−50): −4.55 log10M | Log10TGI50 (HCC-2998; TGI: PG=0): −4.91 log10M | Log10GI50 (HCT-15): <−8.30 | Log10LC50 (HCT-15): −4.81 log10M | Log10TGI50 (HCT-15): −8.19 log10M | Log10GI50 (MDA-MB231/ATCC; Breast Cancer, MDA-MB231/ATCC): −7.64 | Log10LC50 (MDA-MB231/ATCC; MDA-MB231/ATCC (Breast Cancer), LC50: PG=−50): −4.77 log10M | Log10TGI50 (MDA-MB231/ATCC; MDA-MB231/ATCC (Breast Cancer), TGI: PG=0): −6.32 log10M | Log10LC50 (786-0): −4.43 log10M | Log10TGI50 (786-0): −4.94 log10M | Log10GI50 (786-0): −7.81 | Log10LC50 (A498; A498 (Renal Cancer), LC50: PG=−50): −4.74 log10M | Log10TGI50 (A498; A498 (Renal Cancer), TGI: PG=0): −5.31 log10M | Log10GI50 (A498; Renal Cancer, A498): −6.97 | Log10LC50 (OVCAR-4; OVCAR-4 (Ovarian Cancer), LC50: PG=−50): −4.42 log10M | Log10TGI50 (OVCAR-4; OVCAR-4 (Ovarian Cancer), TGI: PG=0): −4.93 log10M | Log10GI50 (OVCAR-4; Ovarian Cancer, OVCAR-4): <−8.30

CC1CCC2C(C)C(CC(COCC(=O)O)CC3OC4OC5(C)CCC6C(C)CCC(C3C)C46OO5)OC3OC4(C)CCC1C32OO4 (stereo not drawn) [Compound 12b, bis-trioxane O-acetic acid]
ED50 (malaria parasite; Route: IV): 5.2 | ED90 (malaria parasite; Route: IV): 10.0 | ED50 (malaria parasite; Route: PO): 6.0 | ED90 (malaria parasite; Route: PO): 19.0 | ED50 ([1]; route IV): 1.0 mg/kg × 4 | ED90 ([1]; route IV): 3.5 mg/kg × 4 | % Parasite Supression at 10 mg/kg ([1]; route IV): 95.7% | ED50 ([1]; route PO): 6.5 mg/kg × 4 | ED90 ([1]; route PO): 17.0 mg/kg × 4 | % Parasite Supression at 10 mg/kg ([1]; route PO): 46.5% | Log10TGI50 (HCT-15): −5.00 log10M | Log10TGI50 (786-0): >−4.30 log10M | Log10GI50 (786-0): −6.59

C[C@@H]1CC[C@H]2[C@@H](C)C(CC(O)(CC3OC4O[C@]5(C)CC[C@H]6[C@H](C)CC[C@@H]([C@H]3C)C46OO5)c3ccc(C(=O)O)cc3)OC3O[C@]4(C)CCC1C32OO4 (stereo partly drawn) [Compound 11b, bis-trioxane tertiary alcohol benzoic acid]
Log10GI50 (HCT-15): <−8.30 | Log10LC50 (HCT-15): >−4.30 log10M | Log10TGI50 (HCT-15): −6.70 log10M | Log10LC50 (786-0): >−4.30 log10M | Log10TGI50 (786-0): >−4.30 log10M | Log10GI50 (786-0): −7.17
